{
  "source": "patent US12077503B2",
  "about": "“Substituted cyclic amides and their use as herbicides” (FMC CORPORATION, priority 2015, dated 2024)",
  "assay_type_in_all_cases": "in vivo",
  "key": {"[1]": {"system": "Kochia (Kochia scoparia)", "assay": "Test A postemergence", "settings": "Bassia scoparia, post-emergence, 240 h, 125 g ai/ha, visual injury after approximately 10 d, read-out: Plant response rating, Kochia", "summary_of_the_method": "(§1)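 Seeds sprayed preemergence with a directed soil spray, or plants at 2 to 10 cm height and one- to two-leaf stage sprayed postemergence, with test chemicals in a non-phytotoxic solvent mixture containing surfactant, in loam soil–sand blend. Injury rated visually against untreated controls after about 10 d in greenhouse, 0 (no effect) to 100 (complete control).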"}, "[2]": {"system": "Galium (catchweed bedstraw, Galium aparine)", "assay": "Test A postemergence", "settings": "Galium, post-emergence, 240 h, 125 g ai/ha, visual injury after approximately 10 d, read-out: Plant response rating, Galium", "summary_of_the_method": "as §1"}, "[3]": {"system": "ragweed (common ragweed, Ambrosia elatior)", "assay": "Test A postemergence", "settings": "Ambrosia artemisiifolia, post-emergence, 240 h, 125 g ai/ha, visual injury after approximately 10 d, read-out: Plant response rating, Ragweed", "summary_of_the_method": "as §1"}, "[4]": {"system": "wheat (Triticum aestivum)", "assay": "Test A postemergence", "settings": "Triticum aestivum, post-emergence, 240 h, 125 g ai/ha, visual injury after approximately 10 d, read-out: Plant response rating, Wheat", "summary_of_the_method": "as §1"}, "[5]": {"system": "giant foxtail (Setaria faberii)", "assay": "Test A postemergence", "settings": "Setaria faberi, post-emergence, 240 h, 125 g ai/ha, visual injury after approximately 10 d, read-out: Plant response rating, Foxtail, Giant", "summary_of_the_method": "as §1"}, "[6]": {"system": "barnyardgrass (Echinochloa crus-galli)", "assay": "Test A postemergence", "settings": "Echinochloa crus-galli, post-emergence, 240 h, 125 g ai/ha, visual injury after approximately 10 d, read-out: Plant response rating, Barnyardgrass", "summary_of_the_method": "as §1"}, "[7]": {"system": "pigweed (Amaranthus retroflexus)", "assay": "Test A postemergence", "settings": "Amaranthus retroflexus, post-emergence, 240 h, 125 g ai/ha, visual injury after approximately 10 d, read-out: Plant response rating, Pigweed", "summary_of_the_method": "as §1"}, "[8]": {"system": "blackgrass (Alopecurus myosuroides)", "assay": "Test A postemergence", "settings": "Alopecurus myosuroides, post-emergence, 240 h, 125 g ai/ha, visual injury after approximately 10 d, read-out: Plant response rating, Blackgrass", "summary_of_the_method": "as §1"}, "[9]": {"system": "corn (Zea mays)", "assay": "Test A postemergence", "settings": "Zea mays, post-emergence, 240 h, 125 g ai/ha, visual injury after approximately 10 d", "summary_of_the_method": "as §1"}, "[10]": {"system": "ryegrass, Italian (Italian ryegrass, Lolium multiflorum)", "assay": "Test A postemergence", "settings": "Lolium multiflorum, post-emergence, 240 h, 125 g ai/ha, visual injury after approximately 10 d, read-out: Plant response rating, Ryegrass, Italian", "summary_of_the_method": "as §1"}, "[11]": {"system": "Kochia (Kochia scoparia)", "assay": "Test A preemergence", "settings": "Bassia scoparia, pre-emergence, 240 h; for pest or weed control at 125 g/ha: 125 g ai/ha, 0 to 100 scale where 0 is no effect and 100 is complete control; for pest or weed control at 500 g/ha: 500 g ai/ha", "summary_of_the_method": "as §1"}, "[12]": {"system": "ragweed (common ragweed, Ambrosia elatior)", "assay": "Test A preemergence", "settings": "Ambrosia artemisiifolia, pre-emergence, 240 h; for pest or weed control at 125 g/ha: 125 g ai/ha, 0 to 100 scale where 0 is no effect and 100 is complete control; for pest or weed control at 500 g/ha: 500 g ai/ha", "summary_of_the_method": "as §1"}, "[13]": {"system": "giant foxtail (Setaria faberii)", "assay": "Test A preemergence", "settings": "Setaria faberi, pre-emergence, 240 h; for pest or weed control at 125 g/ha: 125 g ai/ha, 0 to 100 scale where 0 is no effect and 100 is complete control; for pest or weed control at 500 g/ha: 500 g ai/ha", "summary_of_the_method": "as §1"}, "[14]": {"system": "barnyardgrass (Echinochloa crus-galli)", "assay": "Test A preemergence", "settings": "Echinochloa crus-galli, pre-emergence, 240 h; for pest or weed control at 125 g/ha: 125 g ai/ha, 0 to 100 scale where 0 is no effect and 100 is complete control; for pest or weed control at 500 g/ha: 500 g ai/ha", "summary_of_the_method": "as §1"}, "[15]": {"system": "pigweed (Amaranthus retroflexus)", "assay": "Test A preemergence", "settings": "Amaranthus retroflexus, pre-emergence, 240 h; for pest or weed control at 125 g/ha: 125 g ai/ha, 0 to 100 scale where 0 is no effect and 100 is complete control; for pest or weed control at 500 g/ha: 500 g ai/ha"}, "[16]": {"system": "ryegrass, Italian (Italian ryegrass, Lolium multiflorum)", "assay": "Test A preemergence", "settings": "Lolium multiflorum, pre-emergence, 240 h; for pest or weed control at 125 g/ha: 125 g ai/ha, 0 to 100 scale where 0 is no effect and 100 is complete control; for pest or weed control at 500 g/ha: 500 g ai/ha", "summary_of_the_method": "as §1"}, "[17]": {"settings": "postemergence, 0 to 100 scale (0 no effect, 100 complete control)"}, "[18]": {"settings": "Postemergence, 0 to 100 scale where 0 is no effect and 100 is complete control"}},
  "note": "Where two headings read alike, the source gives them in different places.",
  "data": [
    {"smiles": "CN1C[C@H](c2cc(F)cc(F)c2)[C@@H](C(=O)Nc2ccc(F)cc2C(F)(F)F)C1=O", "note": "[Compound 758]", "values": [
      {"measurement": "pest or weed control at 125 g/ha", "setting": "[1]; [17]", "value": 0, "unit": "%"},
      {"measurement": "pest or weed control at 125 g/ha", "setting": "[2]; [17]", "value": 40, "unit": "%"},
      {"measurement": "pest or weed control at 125 g/ha", "setting": "[3]; [17]", "value": 0, "unit": "%"},
      {"measurement": "plant injury at 125 g/ha", "setting": "[4]; [17]", "value": 0, "unit": "%"},
      {"measurement": "pest or weed control at 125 g/ha", "setting": "[5]; [17]", "value": 80, "unit": "%"},
      {"measurement": "pest or weed control at 125 g/ha", "setting": "[6]; [17]", "value": 70, "unit": "%"},
      {"measurement": "pest or weed control at 125 g/ha", "setting": "[7]; [17]", "value": 0, "unit": "%"},
      {"measurement": "pest or weed control at 125 g/ha", "setting": "[8]; [17]", "value": 0, "unit": "%"},
      {"measurement": "Corn plant response rating (crop injury, 0 = no effect, 100 = complete kill) at 125 g/ha", "setting": "[9]; [17]", "value": 20, "unit": "%"},
      {"measurement": "pest or weed control at 125 g/ha", "setting": "[10]; [17]", "value": 0, "unit": "%"},
      {"measurement": "pest or weed control at 125 g/ha", "setting": "[11]; preemergence, visual rating after approx. 10 d, read-out: Plant response rating, Kochia", "value": 0, "unit": "%"},
      {"measurement": "pest or weed control at 500 g/ha", "setting": "[11]; preemergence, 0 to 100 scale, 0 = no effect, 100 = complete control, read-out: Plant response rating, Kochia", "value": 60, "unit": "%"},
      {"measurement": "pest or weed control at 125 g/ha", "setting": "[12]; preemergence, visual rating after approx. 10 d, read-out: Plant response rating, Ragweed", "value": 0, "unit": "%"},
      {"measurement": "pest or weed control at 500 g/ha", "setting": "[12]; preemergence, 0 to 100 scale, 0 = no effect, 100 = complete control, read-out: Plant response rating, Ragweed", "value": 0, "unit": "%"},
      {"measurement": "pest or weed control at 125 g/ha", "setting": "[13]; preemergence, visual rating after approx. 10 d, read-out: Plant response rating, Foxtail, Giant", "value": 100, "unit": "%"},
      {"measurement": "pest or weed control at 500 g/ha", "setting": "[13]; preemergence, 0 to 100 scale, 0 = no effect, 100 = complete control, read-out: Plant response rating, Foxtail, Giant", "value": 100, "unit": "%"},
      {"measurement": "pest or weed control at 125 g/ha", "setting": "[14]; preemergence, visual rating after approx. 10 d, read-out: Plant response rating, Barnyardgrass", "value": 100, "unit": "%"},
      {"measurement": "pest or weed control at 500 g/ha", "setting": "[14]; preemergence, 0 to 100 scale, 0 = no effect, 100 = complete control, read-out: Plant response rating, Barnyardgrass", "value": 100, "unit": "%"},
      {"measurement": "pest or weed control at 125 g/ha", "setting": "[15]; preemergence, visual rating after approx. 10 d, read-out: Plant response rating, Pigweed", "value": 0, "unit": "%"},
      {"measurement": "pest or weed control at 500 g/ha", "setting": "[15]; preemergence, 0 to 100 scale, 0 = no effect, 100 = complete control, read-out: Plant response rating, Pigweed", "value": 20, "unit": "%"},
      {"measurement": "pest or weed control at 125 g/ha", "setting": "[16]; preemergence, visual rating after approx. 10 d, read-out: Plant response rating, Ryegrass, Italian", "value": 30, "unit": "%"},
      {"measurement": "pest or weed control at 500 g/ha", "setting": "[16]; preemergence, 0 to 100 scale, 0 = no effect, 100 = complete control, read-out: Plant response rating, Ryegrass, Italian", "value": 70, "unit": "%"}
    ]},
    {"smiles": "COc1c(F)ccc([C@H]2CNC(=O)[C@@H]2C(=O)Nc2ccccc2S(C)(=O)=O)c1Cl", "note": "[Compound 916]", "values": [
      {"measurement": "pest or weed control at 125 g/ha", "setting": "[1]; [18]", "value": 0, "unit": "%"},
      {"measurement": "pest or weed control at 125 g/ha", "setting": "[2]; [18]", "value": 30, "unit": "%"},
      {"measurement": "pest or weed control at 125 g/ha", "setting": "[3]; [18]", "value": 0, "unit": "%"},
      {"measurement": "plant injury at 125 g/ha", "setting": "[4]; [18]", "value": 0, "unit": "%"},
      {"measurement": "pest or weed control at 125 g/ha", "setting": "[5]; [18]", "value": 0, "unit": "%"},
      {"measurement": "pest or weed control at 125 g/ha", "setting": "[6]; [18]", "value": 30, "unit": "%"},
      {"measurement": "pest or weed control at 125 g/ha", "setting": "[7]; [18]", "value": 0, "unit": "%"},
      {"measurement": "pest or weed control at 125 g/ha", "setting": "[8]; [18]", "value": 0, "unit": "%"},
      {"measurement": "Corn plant response rating (crop injury, 0 = no effect, 100 = complete kill) at 125 g/ha", "setting": "[9]; [18]", "value": 0, "unit": "%"},
      {"measurement": "pest or weed control at 125 g/ha", "setting": "[10]; [18]", "value": 0, "unit": "%"},
      {"measurement": "pest or weed control at 125 g/ha", "setting": "[11]; preemergence, read-out: Kochia plant response rating", "value": 40, "unit": "%"},
      {"measurement": "pest or weed control at 500 g/ha", "setting": "[11]; Preemergence, visual injury vs untreated controls after approximately 10 d, read-out: Kochia plant response rating (0 to 100 scale where 0 is no effect and 100 is complete control)", "value": 60, "unit": "%"},
      {"measurement": "pest or weed control at 125 g/ha", "setting": "[12]; preemergence, read-out: Ragweed plant response rating", "value": 0, "unit": "%"},
      {"measurement": "pest or weed control at 500 g/ha", "setting": "[12]; Preemergence, visual injury vs untreated controls after approximately 10 d, read-out: Ragweed plant response rating (0 to 100 scale where 0 is no effect and 100 is complete control)", "value": 70, "unit": "%"},
      {"measurement": "pest or weed control at 125 g/ha", "setting": "[13]; preemergence, read-out: Foxtail, Giant plant response rating", "value": 70, "unit": "%"},
      {"measurement": "pest or weed control at 500 g/ha", "setting": "[13]; Preemergence, visual injury vs untreated controls after approximately 10 d, read-out: Foxtail, Giant plant response rating (0 to 100 scale where 0 is no effect and 100 is complete control)", "value": 80, "unit": "%"},
      {"measurement": "pest or weed control at 125 g/ha", "setting": "[14]; preemergence, read-out: Barnyardgrass plant response rating", "value": 30, "unit": "%"},
      {"measurement": "pest or weed control at 500 g/ha", "setting": "[14]; Preemergence, visual injury vs untreated controls after approximately 10 d, read-out: Barnyardgrass plant response rating (0 to 100 scale where 0 is no effect and 100 is complete control)", "value": 80, "unit": "%"},
      {"measurement": "pest or weed control at 125 g/ha", "setting": "[15]; preemergence, read-out: Pigweed plant response rating", "value": 0, "unit": "%"},
      {"measurement": "pest or weed control at 500 g/ha", "setting": "[15]; Preemergence, visual injury vs untreated controls after approximately 10 d, read-out: Pigweed plant response rating (0 to 100 scale where 0 is no effect and 100 is complete control)", "value": 20, "unit": "%"},
      {"measurement": "pest or weed control at 125 g/ha", "setting": "[16]; preemergence, read-out: Ryegrass, Italian plant response rating", "value": 0, "unit": "%"},
      {"measurement": "pest or weed control at 500 g/ha", "setting": "[16]; Preemergence, visual injury vs untreated controls after approximately 10 d, read-out: Ryegrass, Italian plant response rating (0 to 100 scale where 0 is no effect and 100 is complete control)", "value": 30, "unit": "%"}
    ]}
  ]
}
